For data set [1] the following is noted: Liquid; for mass density: 293.15 K, 101.33 kPa, Pycnometric method; for Normal boiling temperature: Ebulliometric method (Recirculating still).
A short description of data set [2]: relative permittivity at zero frequency (dimensionless). The note with it: 293.15 K; 91.3 kPa; Liquid; Coaxial cylinder capacitor.
Data set [3] can be described thus: refractive index (Na D-line) (dimensionless). To be noted: 293.15 K; 101.33 kPa; Liquid; Standard Abbe refractometry.
Data set [4] can be described thus: relative permittivity at zero frequency (dimensionless); xn = mol fraction of the nth substance listed. The note with it: 293.15 K, 91.3 kPa, Liquid, Coaxial cylinder capacitor.

We go through ten molecules from the NIST ThermoML archive (doi:10.1016/j.jct.2012.08.009).

± gives the expanded uncertainty stated by the source.

By mass density is commonly meant the mass of a sample divided by its volume. The term refractive index denotes the speed of light in vacuum divided by its phase velocity in the sample. In the case of `CCO` [ethanol], in data set [1], the mass density is listed as 790 ± 2.1 kg/m3 and the Normal boiling temperature stood at 78.20 ± 0.51 °C. Moreover, in data set [2], the “relative permittivity at zero frequency” value is recorded as 25.02 ± 0.08. The refractive index in data set [3] is listed as 1.3612 ± 0.0028.
As to `CC(=O)O` [acetic acid], in data set [1], the mass density came out at 1055 ± 4.1 kg/m3 and the Normal boiling temperature worked out at 118.0 ± 0.51 °C. The “relative permittivity at zero frequency” value in data set [2] was found to be 6.15 ± 0.02. In addition, the refractive index in data set [3] came to 1.372 ± 0.0028.
For the molecule `O` [water] + CC(=O)O, in data set [4] (x2 = 0), the “relative permittivity at zero frequency” value is 79.99 ± 0.25.
Still for that read-out and setting: to `O` [water] + CCO belongs 79.99 ± 0.25.
As for `CC(=O)O` [acetic acid] + O, the “relative permittivity at zero frequency” value in data set [4] (x1 = 0.05) was 73.5 ± 0.23; in data set [4] (x1 = 0.1), 67.7 ± 0.22; in data set [4] (x1 = 0.2), 58 ± 0.18; in data set [4] (x1 = 0.3), 49.4 ± 0.16; in data set [4] (x1 = 0.4), 41.8 ± 0.13; in data set [4] (x1 = 0.5), 34.9 ± 0.11. For the same molecule, the “relative permittivity at zero frequency” value in data set [4] (x1 = 0.6) is 28.5 ± 0.09; in data set [4] (x1 = 0.7), 22.41 ± 0.07; in data set [4] (x1 = 0.8), 16.55 ± 0.05; in data set [4] (x1 = 0.9), 11.11 ± 0.04; in data set [4] (x1 = 0.95) it was 8.64 ± 0.03; in data set [4] (x1 = 0.98) it was 7.25 ± 0.02. The “relative permittivity at zero frequency” value in data set [4] (x1 = 1) is on record as 6.15 ± 0.02.
Regarding `CO` [methanol], in data set [1], the mass density is reported as 793 ± 2.1 kg/m3 and the Normal boiling temperature came to 64.70 ± 0.51 °C. In addition, the “relative permittivity at zero frequency” value in data set [2] turned out to be 33 ± 0.11. Besides, the refractive index in data set [3] came to 1.328 ± 0.0027.
Turning to `CO` [methanol] + O, the “relative permittivity at zero frequency” value in data set [4] (x1 = 0.05) was 76.058 ± 0.24; in data set [4] (x1 = 0.1), 72.27 ± 0.23; in data set [4] (x1 = 0.2), 65.58 ± 0.21; in data set [4] (x1 = 0.3), 59.67 ± 0.19; in data set [4] (x1 = 0.4), 54.7 ± 0.17; in data set [4] (x1 = 0.5) it was 50.22 ± 0.16. The “relative permittivity at zero frequency” value in data set [4] (x1 = 0.6) is listed as 46.22 ± 0.15; in data set [4] (x1 = 0.7), 42.54 ± 0.14; in data set [4] (x1 = 0.8), 39.18 ± 0.12; in data set [4] (x1 = 0.9), 36.1 ± 0.12; in data set [4] (x1 = 0.95), 34.65 ± 0.11; in data set [4] (x1 = 0.98), 33.72 ± 0.11. Further, in data set [4] (x1 = 1), the “relative permittivity at zero frequency” value is 33 ± 0.11.
As to `O` [water] + CO, the “relative permittivity at zero frequency” value in data set [4] (x2 = 0) was determined as 79.99 ± 0.25.
Take `O` [water]: in data set [1], the mass density is on record as 999 ± 2.2 kg/m3 and the Normal boiling temperature worked out at 100.0 ± 0.5 °C. Moreover, the “relative permittivity at zero frequency” value in data set [2] is reported as 79.99 ± 0.25. Besides, the refractive index in data set [3] was determined as 1.3342 ± 0.0028.
Take `CCO` [ethanol] + O: the “relative permittivity at zero frequency” value is listed as 74.7 ± 0.24 in data set [4] (x1 = 0.05); 69.4 ± 0.22 in data set [4] (x1 = 0.1); 59.98 ± 0.19 in data set [4] (x1 = 0.2); 52.2 ± 0.17 in data set [4] (x1 = 0.3); 46.1 ± 0.15 in data set [4] (x1 = 0.4); 41.1 ± 0.13 in data set [4] (x1 = 0.5). For the same molecule, the “relative permittivity at zero frequency” value worked out at 37.01 ± 0.12 in data set [4] (x1 = 0.6); 33.5 ± 0.11 in data set [4] (x1 = 0.7); 30.36 ± 0.1 in data set [4] (x1 = 0.8); 27.55 ± 0.09 in data set [4] (x1 = 0.9); 26.28 ± 0.08 in data set [4] (x1 = 0.95); 25.53 ± 0.08 in data set [4] (x1 = 0.98). Besides, in data set [4] (x1 = 1), the “relative permittivity at zero frequency” value came out at 25.02 ± 0.08.
